Experimental data from patent publication US8431748B2, “Low protonation constant hydroxy acids” (BWE I Malmo AB, priority 2006, dated 2013).

Assays:
[1] = Solubility of the product in solvents; type: physicochemical
[2] = pKa determination by titration with aqueous potassium hydroxide
Description: The pKa value was taken as the pH at ½-equivalent volume of potassium hydroxide and corrected against a standard curve prepared from measurements on maleic acid, succinic acid, methacrylic acid, propanoic acid and pentanoic acid.

[3] = Effect of hydrogen peroxide oxidation of thioether sulphur on pKa; type: physicochemical; conditions: 0.82-2.17 eq. H2O2 (30%), after 2 days at room temperature, average pKa of oxidation products
Description: Five aqueous (35 ml) solutions of GALA (approx 2 mmol) was prepared) and varying amounts of hydrogen peroxide (0.82-2.17 eq., 30%) added. The average pKa value of the oxidation products was assessed after 2 days at room temperature, and the relation between pKa and mol ratio H2O2/S can be seen in FIG. 1.

[4] = in water, pH at 1/2-equivalent volume of 0.1 M KOH, corrected against a standard curve

| SMILES | solubility in hexane [1] | solubility in methanol [1] | pKa ([2]; water) | pKa [2, 4] | further results |
| --- | --- | --- | --- | --- | --- |
| CCC(CO)(CO)COCCCSC(C)C(=O)O (stereo not drawn) [TELA, Trimethyolpropane Monoallyl Ether-Thiolactic Acid Adduct] | not soluble | soluble | – | – | solubility in toluene ([1]; toluene): soluble |
| CC(CO)(CO)C(=O)O [DMPA, 2,2-bis-(hydroxymethyl)propanoic acid, reference compound] | – | – | 4.64 | – | – |
| CC(SCCCOCC(O)CO)C(=O)O (stereo not drawn) [GALA, Glycerol Monoallyl Ether-Thiolactic Acid Adduct] | not soluble | soluble | – | 3.67 | solubility in ethanol/toluene (1/4) ([1]; ethanol/toluene (1/4)): soluble; solubility in water ([1]; water): soluble; reduction of pKa value by addition of hydrogen peroxide [3]: approximately 1 unit |
| CCC(CO)(CO)C(=O)O [DMBA, 2,2-bis-(hydroxymethyl)butanoic acid, reference compound] | – | – | 4.55 | – | – |
| O=C(O)CSCCCOCC(O)CO (stereo not drawn) [GAMA, Glycerol 1-Monoallyl Ether-Mercaptoacetic Acid] | – | – | – | 3.60 | – |
